Test system: 996289-038-R-J1-PDC spheroid viability
Test: Anticancer human tumor 996289-038-R-J1-PDC patient-derived colon adenocarcinoma cell line growth inhibition [PI3K]
Conditions: spheroids with HUVEC and MSC; for IC50: curve of first compound; for viability, T/C: stronger effect = lower value
Outline: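 Tumor cells grown as multi-cell spheroids with HUVEC endothelial cells and MSC fibroblast-like stroma were treated with targeted agents combined with inavolisib, alpelisib, duvelisib or copanlisib. Doses fell in half-log steps from near clinical Cmax, else from 10 microM. Viability was measured.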

[1] = second compound 0.0316 µM, first compound 0.0316 µM
[2] = second compound 0.0316 µM, first compound 0.1 µM
[3] = second compound 0.1 µM, first compound 0.0316 µM
[4] = second compound 0.1 µM, first compound 0.1 µM
[5] = second compound 0.316 µM, first compound 0.0316 µM
[6] = second compound 0.316 µM, first compound 0.1 µM
[7] = second compound 1 µM, first compound 0.0316 µM
[8] = second compound 1 µM, first compound 0.1 µM
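Also: spheroids exposed to compounds for seven days before viability read.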
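For viability, T/C in this document: luminescence used as a proxy for viable cell amount; percent viability relative to DMSO vehicle control as 100%.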

## CNC(=O)c1ccc(N2C(=S)N(c3ccc(C#N)c(C(F)(F)F)c3)C(=O)C2(C)C)cc1F + CC(Nc1ncnc2nc[nH]c12)c1cc2cccc(Cl)c2c(=O)n1-c1ccccc1
Second compound 0.0316 µM
  IC50: > 10000 nM
Second compound 0.1 µM
  IC50: > 10000 nM
Second compound 0.316 µM
  IC50: > 10000 nM
Second compound 1 µM
  IC50: > 10000 nM
Second compound 3.16 µM
  IC50: > 10000 nM
Second compound 10 µM
  IC50: > 10000 nM
[1]
  viability, T/C: 96.5%
[2]
  viability, T/C: 104%
Second compound 0.0316 µM, first compound 0.316 µM
  viability, T/C: 110%
Second compound 0.0316 µM, first compound 1 µM
  viability, T/C: 110%
Second compound 0.0316 µM, first compound 3.16 µM
  viability, T/C: 118%
Second compound 0.0316 µM, first compound 10 µM
  viability, T/C: 119%
[3]
  viability, T/C: 130%
[4]
  viability, T/C: 98.4%
Second compound 0.1 µM, first compound 0.316 µM
  viability, T/C: 93.6%
Second compound 0.1 µM, first compound 1 µM
  viability, T/C: 88.6%
Second compound 0.1 µM, first compound 3.16 µM
  viability, T/C: 105%
Second compound 0.1 µM, first compound 10 µM
  viability, T/C: 108%
[5]
  viability, T/C: 107%
[6]
  viability, T/C: 106%
Second compound 0.316 µM, first compound 0.316 µM
  viability, T/C: 102%
Second compound 0.316 µM, first compound 1 µM
  viability, T/C: 110%
Second compound 0.316 µM, first compound 3.16 µM
  viability, T/C: 119%
Second compound 0.316 µM, first compound 10 µM
  viability, T/C: 103%
[7]
  viability, T/C: 94.7%
[8]
  viability, T/C: 112%
Second compound 1 µM, first compound 0.316 µM
  viability, T/C: 98.2%
Second compound 1 µM, first compound 1 µM
  viability, T/C: 102%
Second compound 1 µM, first compound 3.16 µM
  viability, T/C: 114%
Second compound 1 µM, first compound 10 µM
  viability, T/C: 96.9%
Second compound 3.16 µM, first compound 0.0316 µM
  viability, T/C: 96.9%
Second compound 3.16 µM, first compound 0.1 µM
  viability, T/C: 102%
Second compound 3.16 µM, first compound 0.316 µM
  viability, T/C: 89.6%
Second compound 3.16 µM, first compound 1 µM
  viability, T/C: 109%
Second compound 3.16 µM, first compound 3.16 µM
  viability, T/C: 102%
Second compound 3.16 µM, first compound 10 µM
  viability, T/C: 110%
Second compound 10 µM, first compound 0.0316 µM
  viability, T/C: 98.9%
Second compound 10 µM, first compound 0.1 µM
  viability, T/C: 101%
Second compound 10 µM, first compound 0.316 µM
  viability, T/C: 83.1%
Second compound 10 µM, first compound 1 µM
  viability, T/C: 104%
Second compound 10 µM, first compound 3.16 µM
  viability, T/C: 98.8%
Second compound 10 µM, first compound 10 µM
  viability, T/C: 97.2%

## CC(=O)c1c(C)c2cnc(Nc3ccc(N4CCNCC4)cn3)nc2n(C2CCCC2)c1=O + CC(Nc1ccc2c(c1)OCCn1cc(N3C(=O)OCC3C(F)F)nc1-2)C(N)=O
Second compound 0.00316 µM
  IC50: > 100 nM
Second compound 0.01 µM
  IC50: > 100 nM
Second compound 0.0316 µM
  IC50: > 100 nM
Second compound 0.1 µM
  IC50: > 100 nM
Second compound 0.316 µM
  IC50: > 100 nM
Second compound 1 µM
  IC50: 79.6 nM
Second compound 0.00316 µM, first compound 0.000316 µM
  viability, T/C: 89.9%
Second compound 0.00316 µM, first compound 0.001 µM
  viability, T/C: 106%
Second compound 0.00316 µM, first compound 0.00316 µM
  viability, T/C: 103%
Second compound 0.00316 µM, first compound 0.01 µM
  viability, T/C: 93.9%
Second compound 0.00316 µM, first compound 0.0316 µM
  viability, T/C: 96.5%
Second compound 0.00316 µM, first compound 0.1 µM
  viability, T/C: 93.3%
Second compound 0.01 µM, first compound 0.000316 µM
  viability, T/C: 105%
Second compound 0.01 µM, first compound 0.001 µM
  viability, T/C: 90.5%
Second compound 0.01 µM, first compound 0.00316 µM
  viability, T/C: 101%
Second compound 0.01 µM, first compound 0.01 µM
  viability, T/C: 96.4%
Second compound 0.01 µM, first compound 0.0316 µM
  viability, T/C: 96.7%
Second compound 0.01 µM, first compound 0.1 µM
  viability, T/C: 92%
Second compound 0.0316 µM, first compound 0.000316 µM
  viability, T/C: 101%
Second compound 0.0316 µM, first compound 0.001 µM
  viability, T/C: 85.3%
Second compound 0.0316 µM, first compound 0.00316 µM
  viability, T/C: 95.8%
Second compound 0.0316 µM, first compound 0.01 µM
  viability, T/C: 87.5%
[1]
  viability, T/C: 92.8%
[2]
  viability, T/C: 81.2%
Second compound 0.1 µM, first compound 0.000316 µM
  viability, T/C: 82.2%
Second compound 0.1 µM, first compound 0.001 µM
  viability, T/C: 70%
Second compound 0.1 µM, first compound 0.00316 µM
  viability, T/C: 85.3%
Second compound 0.1 µM, first compound 0.01 µM
  viability, T/C: 92.5%
[3]
  viability, T/C: 87.8%
[4]
  viability, T/C: 76.5%
Second compound 0.316 µM, first compound 0.000316 µM
  viability, T/C: 73%
Second compound 0.316 µM, first compound 0.001 µM
  viability, T/C: 81.6%
Second compound 0.316 µM, first compound 0.00316 µM
  viability, T/C: 63.4%
Second compound 0.316 µM, first compound 0.01 µM
  viability, T/C: 64.8%
[5]
  viability, T/C: 70.9%
[6]
  viability, T/C: 68.8%
Second compound 1 µM, first compound 0.000316 µM
  viability, T/C: 58.7%
Second compound 1 µM, first compound 0.001 µM
  viability, T/C: 72.5%
Second compound 1 µM, first compound 0.00316 µM
  viability, T/C: 58.9%
Second compound 1 µM, first compound 0.01 µM
  viability, T/C: 57.7%
[7]
  viability, T/C: 57.8%
[8]
  viability, T/C: 48.2%
